Experimental data as given in article PMC12124858, “Thymoquinone loaded on chitosan nanoparticles alleviated the consequences of cryptosporidiosis infection in a murine model: Evidence from parasitological, histopathological, immunohistochemical, and immunological studies” (PLOS One, 2025).
Marks after values point to notes of the source that are not given here.

Legend:
IL-10 = test: Serum IL-10 by ELISA; format: in vivo, Swiss albino mice
Description: (§1) Immunological measurements: Interleukin-10 (IL-10) and interferon-gamma (IFN-γ) levels in mouse sera were measured. Blood samples were collected in plain tubes from the mice’s retroorbital veins at the indicated time points (14 dpi and 21 dpi). After 30 minutes at room temperature and 15 minutes of centrifugation at 3000 rpm, sera were collected and stored at −20°C. Using an ELISA kit and following the manufacturer’s instructions, the enzyme-linked immunosorbent assay (ELISA) was employed to measure the levels of IFN-γ and IL-10 in the serum (Bioneovan Co.; Ltd, Beijing, China).

[1] = Pharmacokinetic study after oral administration; format: in vivo, Wistar albino rats; conditions: rats, oral 20 mg/kg; for AUC(0-t): read-out: AUC₀ → 24; for half-life: read-out: T1/₂ (converted)
Description: All groups received an oral dose of 20 mg/kg of their respective formulations. Blood samples (500 μL) were collected from the ocular vein into heparinized tubes at intervals of 0.5, 1, 2, 4, 6, 8, 12, and 24 hours post-administration. The samples were centrifuged at 10,000 rpm for 5 min to isolate plasma stored at −20°C. Plasma samples were deproteinized by adding 1 mL of acetonitrile to each sample, followed by vortexing for 10 min and centrifugation at 6,000 rpm for another 10 min. […] Pharmacokinetic parameters such as peak plasma concentration (Cmax), time to reach peak concentration (Tmax), mean residence time (MRT), area under the curve (AUC), elimination rate constant (Kel), and plasma half-life (t1/2) were calculated using PK Solver 2.0 software through non-compartmental analysis.

Cryptosporidium parvum [2] = test: Oocyst shedding in immunosuppressed infected mice; format: in vivo, Swiss albino mice; conditions: for I % (percent inhibition of oocyst count) / I% (percent inhibition of oocyst count, effectiveness): versus infected untreated group
Description: Animals: The study was conducted following approval by the Research Ethics Committee of Zagazig University, Institutional Animal Care and Use Committee (ZU-IACUC), under protocol number ZU-IACUC/2/F/53/2024, following the National Institutes of Health guidelines for animal experimentation. Seventy male laboratory-bred Swiss albino mice free of parasites were included in this study. The mice weighed 20-25 grams at the start of the trial and were between four and six weeks old. They were purchased from the Biological Supply Center of the Theodor Bilharz Research Institute (TBRI). Throughout the trial, the mice were housed in an air-conditioned animal facility maintained at 20-22°C and were provided with a standard commercial pelleted diet and free access to water. […] Immunosuppression: The mice were subjected to immunosuppression by administering dexamethasone (Dexazone, […] Pharmaceuticals, Cairo, Egypt) orally through an esophageal tube at a rate of 0.25 μg/g/day for 14 consecutive days before being inoculated with C. parvum oocysts. Throughout the experiment, the mice received the same dosage of dexamethasone. The infection: In a previous study, we isolated Cryptosporidium oocysts from diarrheal calves and genetically identified them as C. parvum. The 2.5% potassium dichromate solution containing purified oocysts was stored at 4°C until needed. After preparing an infectious inoculum and counting the number of oocysts in the concentrated stock inoculum, the fluid volume of the inoculum per mouse was determined. Oral-gastric gavage was used to infect each mouse orally with C. parvum oocysts. Approximately 3 × 10^3 oocysts/mouse were used to infect each mouse at 0 days post-infection (dpi). […] Thymoquinone loaded on chitosan nanoparticles was given at the same dose for Group VII. Chitosan was administered at 200 mg/kg three times a week, starting at seven dpi for 2 weeks for Group III [36]. Assessments of the drug therapy: Parasitological examination: The mice feces were collected at 7, 14, and 21 dpi. For the oocyst shedding assessment, the number of Cryptosporidium oocysts in the fecal pellets was counted after staining with Kinyoun's acid-fast stain. Fecal samples were collected from each infected mouse. The mean number of oocysts was calculated for each mouse group. After weighing, a milligram of the fecal pellet was placed in 1 milliliter of 10% formalin. Centrifugation concentrated the fecal solution for ten minutes at 7000 rpm. The number of oocysts in one milliliter of the feces sample was calculated using 100 μl of fecal material dried, stained, and observed through an oil immersion lens (x100). The oocyst count was detected and expressed per gram of feces. The effectiveness of each drug was assessed according to [35] and represented as a percentage of reduction using the following formula: Efficacy(%)=100×((infected model group oocyst count-treated model group oocyst count)/(infected model group oocyst count)) %Inhibition = [(mean oocyst count in the infected untreated group - mean oocyst count in the infected treated group)/mean oocyst count in the infected untreated group] × 100

IFN-γ = test: Serum IFN-γ by ELISA; format: in vivo, Swiss albino mice
Description: as §1

cyclin D1 = test: Immunohistochemical staining of cyclin D1 in the intestine; format: in vivo, Swiss albino mice; conditions: 21 dpi, in words
Description: Immunohistochemical examination for detecting intestinal dysplasia using cyclin D1 marker: Three to five-micrometer intestinal tissue sections were deparaffinized using xylene and rehydrated using varying degrees of alcohol. Next, peroxidase activity was blocked using 3% hydrogen peroxide. The Dako target retrieval solution (pH 6.0) was applied for twenty minutes. The sections were treated for one hour with the primary antibody (Anti-Cyclin D1 antibody [SP4], ab 16663, Abcam, UK, diluted 1/100 in PBS). Antibody binding was identified using Dako’s HRP Envision Kit (Dako Cytomation, Denmark).

Cryptosporidium parvum [3] = test: Histopathological examination of the liver (H&E); format: in vivo, Swiss albino mice; conditions: 21 dpi, in words
Description: (§2) At 21 dpi, the mice were humanely euthanized under light anesthesia induced by isoflurane inhalation (Forane®, Baxter, UK). Representative tissue specimens from all animals’ intestines, livers, and spleens were carefully collected and fixed in a 10% neutral buffered formalin solution for 48 hours. Following fixation, the tissues were dehydrated through a graded series of ethyl alcohol concentrations, cleared in xylene, and subsequently embedded in paraffin wax. Two sections, each 5 µm thick, were obtained from each tissue specimen. The sections were then deparaffinized in xylene and rehydrated through a descending series of alcohol concentrations. After rehydration, the tissue sections were mounted onto histological slides and stained with hematoxylin and eosin (H&E) for microscopic examination. The prepared slides were thoroughly analyzed under a light microscope to identify pathological alterations and evaluate the administered drug’s potential ameliorative effects. This standardized protocol ensured accurate and consistent histological assessment across all samples [39].

Cryptosporidium parvum [4] = test: Histopathological examination of the spleen (H&E); format: in vivo, Swiss albino mice; conditions: 21 dpi, in words
Description: as §2

Cryptosporidium parvum [5] = test: Histopathological examination and scores of the intestine (H&E); format: in vivo, Swiss albino mice; conditions: 21 dpi; for Intestinal histopathological findings: H&E, in words
Description: as §2, with “[39]. Histopathological scores for intestine: H&E-stained tissue sections of the intestine were evaluated in a blinded manner by assessing specific histological parameters, including mononuclear cell infiltration in the lamina propria, crypt hyperplasia, depletion or hyperplasia of goblet cells, and alterations in mucosal histoarchitecture. A systematic scoring approach was employed to quantify these histological changes. Histological alterations were counted in 50 randomly selected microscopic fields (captured images; 40 × objective) from each mouse within each experimental group. This method ensured a comprehensive and unbiased assessment of intestinal pathology across all samples [40].” for “[39].”

[6] = In vitro release study, dialysis method; format: physicochemical; conditions: PBS pH 6.8, 37°C
Description: The THQ release profile from […] […] Briefly, 3 mL of the […] suspension was placed in a dialysis bag (M.W. 12 kDa, Sigma-Aldrich). Each sealed dialysis bag was immersed in 50 mL of PBS (pH 6.8) in a shaking incubator at 37 ± 0.5°C and 100 rpm. Samples were withdrawn from the release medium at specified intervals and replaced with fresh buffer to maintain sink conditions. […] As a control, the release of free THQ and free NTZ was measured under the same conditions. All measurements were performed in triplicate.

L. donovani = system: L. donovani; parameters: method as in Islamuddin et al. [22]; conditions: in words; ref Islamuddin et al. [22]; cited from earlier work
[7] = Wistar albino, rat, plasma, n = 6
[8] = 7th day PI (start of treatment), immunosuppressed mice, oral
[9] = 14th day PI, NTZ forms 100 mg/kg/day 5 days, THQ forms and CsNPs 200 mg/kg three times a week, oral from 7 dpi
[10] = 21th day PI, NTZ forms 100 mg/kg/day 5 days, THQ forms and CsNPs 200 mg/kg three times a week, oral from 7 dpi

Compound	IL-10 serum level, Mean ± SE (IL-10; 14 days post-infection)	IL-10 serum level, Mean ± SE (IL-10; 21 days post-infection)	concentration at 0.5 h ([1]; Wistar albino, rat, plasma)	concentration at 12 h ([1]; Wistar albino, rat, plasma)	concentration at 24 h ([1]; Wistar albino, rat, plasma)	AUC [1, 7]	AUC(0-inf) [1, 7]	Cmax [1, 7]	Tmax [1, 7]	AUC(0-t) [1, 7]	half-life [1, 7]	Kel ([1]; n = 6)	Count of Cryptosporidium oocysts per gram stool, Mean ± SE (Cryptosporidium parvum [2]; [8])	I % (percent inhibition of oocyst count) (Cryptosporidium parvum [2]; 14th day PI)	Count of Cryptosporidium oocysts per gram stool, Mean ± SE (Cryptosporidium parvum [2]; [9])	I% (percent inhibition of oocyst count, effectiveness) (Cryptosporidium parvum [2]; 21th day PI)	Count of Cryptosporidium oocysts per gram stool, Mean ± SE (Cryptosporidium parvum [2]; [10])	IFN-γ serum level, Mean ± SE (IFN-γ; 14 days post-infection)	IFN-γ serum level, Mean ± SE (IFN-γ; 21 days post-infection)	cyclin D1 immunostaining of the intestine (cyclin D1)	also measured
CC(=O)Oc1ccccc1C(=O)Nc1ncc([N+](=O)[O-])s1 [NTZ, nitazoxanide, reference compound]	16.9 ± 0.6 cd	30.9 ± 0.3 ^c	24900 ± 9110 ng/mL	4160 ± 2710 ng/mL	1390 ± 890 ng/mL	1440 ± 49.4 µg·h/mL	1470 ± 52.3 µg·h/mL	53200 ± 4950 ng/mL	2 h	1440 ± 48.7 µg·h/mL	6.55 ± 0.54 h	0.105 ± 0.0087 h˦ ¹	307.3 ± 3 ^Aa x10^3 per gram stool	53%	146.8 ± 2.9 ^Bc x10^3 per gram stool	54%	145.5 ± 2.6 ^Bc x10^3 per gram stool	37.1 ± 1.2 ^b	28.1 ± 1.3 ^b	Moderate immunostaining	Liver histopathological findings (Cryptosporidium parvum [3]): partial improvement; Spleen histopathological findings (Cryptosporidium parvum [4]): partial improvement with mild hyperplasia of lymphoid elements; Intestinal histopathological findings (Cryptosporidium parvum [5]): persistent villous atrophy and mild improvement in histopathological alterations; Morphometric indices: Villus width (Cryptosporidium parvum [5]; intestine): 91.2^A; Lesion frequency: Epithelial necrosis (Cryptosporidium parvum [5]; intestine, mean ± SE): 9 ± 0.58^B; Lesion frequency: Goblet cell hyperplasia (Cryptosporidium parvum [5]; intestine, mean ± SE): 21.5 ± 0.76^B; Lesion frequency: Mucosal erosion (Cryptosporidium parvum [5]; intestine, mean ± SE): 16 ± 0.58^B; Lesion frequency: Mucosal ulceration (Cryptosporidium parvum [5]; intestine, mean ± SE): 9.83 ± 0.6^B; Lesion frequency: Mucosal-associated lymphocyte hyperplasia (Cryptosporidium parvum [5]; intestine, mean ± SE): 21 ± 0.58^C; Lesion frequency: Vascular congestion (Cryptosporidium parvum [5]; intestine, mean ± SE): 21 ± 0.97^B; Lesion frequency: Villus atrophy (Cryptosporidium parvum [5]; intestine, mean ± SE): 10 ± 0.58^B; Lesion frequency: Villus fusion (Cryptosporidium parvum [5]; intestine, mean ± SE): 5.17 ± 0.31^B; Morphometric indices: Thickness of lamina propria (Cryptosporidium parvum [5]; intestine, mean ± SE): 174.33 ± 1.05^B; Morphometric indices: Thickness of muscular layer per image (Cryptosporidium parvum [5]; intestine, mean ± SE): 65.87 ± 0.59^BC; Morphometric indices: Villus height (Cryptosporidium parvum [5]; intestine, mean ± SE): 298.67 ± 2.4^C; Morphometric indices: Villus surface area (Cryptosporidium parvum [5]; intestine, mean ± SE): 27609.37 ± 307.03^C; drug release ([6]; first eight hours): 100%
CC1=CC(=O)C(C(C)C)=CC1=O [THQ, 2-isopropyl-5-methyl-1,4-benzoquinone]	18.5 ± 0.6^bc	33.3 ± 0.4 ^bc	9790 ± 3250 ng/mL	4880 ± 1790 ng/mL	4190 ± 1580 ng/mL	340 ± 13.6 µg·h/mL	630 ± 22.1 µg·h/mL	43600 ± 7920 ng/mL	4 h	316 ± 12.5 µg·h/mL	53.2 ± 4.88 h	0.013 ± 0.0012 h˦ ¹	300 ± 3.1 ^Aa x10^3 per gram stool	75%	78 ± 1.5 ^Bd x10^3 per gram stool	77%	72 ± 2.6 ^Cd x10^3 per gram stool	36.8 ± 1.5 ^b	29.3 ± 0.6 ^ab	Moderate immunostaining	leishmanicidal activity (L. donovani): significant leishmanicidal activity; MRT [1, 7]: 6.97 ± 1.32 h; Liver histopathological findings (Cryptosporidium parvum [3]): partial improvement; Spleen histopathological findings (Cryptosporidium parvum [4]): partial improvement with mild hyperplasia of lymphoid elements; Intestinal histopathological findings (Cryptosporidium parvum [5]): greater improvement than the NTZ-treated group; Morphometric indices: Villus width (Cryptosporidium parvum [5]; intestine): 91.4^A; Lesion frequency: Epithelial necrosis (Cryptosporidium parvum [5]; intestine, mean ± SE): 7.5 ± 0.43^B; Lesion frequency: Goblet cell hyperplasia (Cryptosporidium parvum [5]; intestine, mean ± SE): 20.67 ± 0.49^BC; Lesion frequency: Mucosal erosion (Cryptosporidium parvum [5]; intestine, mean ± SE): 14.83 ± 0.65^B; Lesion frequency: Mucosal ulceration (Cryptosporidium parvum [5]; intestine, mean ± SE): 8.83 ± 0.48^B; Lesion frequency: Mucosal-associated lymphocyte hyperplasia (Cryptosporidium parvum [5]; intestine, mean ± SE): 22 ± 0.68^C; Lesion frequency: Vascular congestion (Cryptosporidium parvum [5]; intestine, mean ± SE): 18.5 ± 0.85^B; Lesion frequency: Villus atrophy (Cryptosporidium parvum [5]; intestine, mean ± SE): 9.83 ± 0.87^B; Lesion frequency: Villus fusion (Cryptosporidium parvum [5]; intestine, mean ± SE): 4.83 ± 0.17^B; Morphometric indices: Crypt depth (Cryptosporidium parvum [5]; intestine, mean ± SE): 79.7 ± 0.22^AB; Morphometric indices: Thickness of lamina propria (Cryptosporidium parvum [5]; intestine, mean ± SE): 170.33 ± 1.15^BC; Morphometric indices: Thickness of muscular layer per image (Cryptosporidium parvum [5]; intestine, mean ± SE): 64.35 ± 0.2^C; Morphometric indices: Villus height (Cryptosporidium parvum [5]; intestine, mean ± SE): 302 ± 2.35^C; Morphometric indices: Villus surface area (Cryptosporidium parvum [5]; intestine, mean ± SE): 27975.53 ± 357.01^C; drug release ([6]; after 12 hours): 100%
